Patent US11584714B2 (priority 2018, dated 2023)
Where a name gives a salt, the structure may show the parent alone. Read-outs that look alike come from different tables or passages of the source.

Columns and labels:
Type in all cases: biochemical
MASP-2 (CCP1-CCP2-SP) = MASP-2 (CCP1-CCP2-SP) (Homo sapiens (Human), UniProt O00187); test: biochemical; conditions: for MASP-2 vs. thrombin selectivity: selectivity for MASP-2 inhibition versus thrombin
mMASP-2 = mMASP-2 (Mus musculus (Mouse), UniProt Q91WP0); test: Enzymatic inhibition of mMASP-2; conditions: read-out: mMASP-2 Ki
mMASP-2, sequence (Q91WP0 20-685): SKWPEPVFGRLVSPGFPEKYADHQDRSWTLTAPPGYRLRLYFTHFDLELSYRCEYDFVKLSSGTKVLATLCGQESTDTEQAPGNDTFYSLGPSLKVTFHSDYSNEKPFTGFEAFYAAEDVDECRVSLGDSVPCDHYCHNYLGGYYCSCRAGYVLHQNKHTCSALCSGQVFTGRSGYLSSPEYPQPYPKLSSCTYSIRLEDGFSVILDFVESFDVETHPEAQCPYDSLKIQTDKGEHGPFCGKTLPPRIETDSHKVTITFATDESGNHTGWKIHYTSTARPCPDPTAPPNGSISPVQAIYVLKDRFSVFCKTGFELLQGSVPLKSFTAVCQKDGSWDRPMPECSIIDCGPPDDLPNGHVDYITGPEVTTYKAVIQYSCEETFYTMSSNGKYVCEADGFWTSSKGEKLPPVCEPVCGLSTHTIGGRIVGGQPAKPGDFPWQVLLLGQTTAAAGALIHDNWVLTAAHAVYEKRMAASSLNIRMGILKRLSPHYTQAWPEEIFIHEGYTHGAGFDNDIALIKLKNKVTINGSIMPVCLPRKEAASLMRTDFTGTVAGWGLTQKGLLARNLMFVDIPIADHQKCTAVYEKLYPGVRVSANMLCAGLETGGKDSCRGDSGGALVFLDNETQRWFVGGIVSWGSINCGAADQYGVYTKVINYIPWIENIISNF

human α-thrombin = human α-thrombin (Homo sapiens (Human), UniProt P00734); test: Enzymatic assay for thrombin (Boc-VPR-AMC substrate)

MASP-2 (CCP1-CCP2-SP), sequence (O00187 445-686): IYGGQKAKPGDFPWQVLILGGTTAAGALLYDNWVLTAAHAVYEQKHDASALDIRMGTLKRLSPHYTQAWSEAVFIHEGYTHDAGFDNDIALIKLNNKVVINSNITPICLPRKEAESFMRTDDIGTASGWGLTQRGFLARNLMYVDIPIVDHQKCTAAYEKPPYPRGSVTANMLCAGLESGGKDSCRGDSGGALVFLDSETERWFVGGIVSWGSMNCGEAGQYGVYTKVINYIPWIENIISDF

Cc1nc(N)ccc1CNC(=O)[C@H](C)NC(=O)[C@H]1C[C@H](Cc2cccc(C(F)(F)F)c2)C(=O)N1 [compound 1320, (2R,4S)—N—((S)-1-(((6-Amino-2-methylpyridin-3-yl)methyl)amino)-1-oxopropan-2-yl)-5-oxo-4-(3-(trifluoromethyl)benzyl)pyrrolidine-2-carboxamide Di-trifluoroacetate salt]
Ki (MASP-2 (CCP1-CCP2-SP); read-out: MASP-2 Ki): < 0.5 µM
MASP-2 vs. thrombin selectivity (MASP-2 (CCP1-CCP2-SP)): ** (≥5.0 to <25-fold)
Ki (mMASP-2): 0.5 to 2.5 µM
Ki (human α-thrombin; Thrombin Ki (μM)): 0.5 to 2.5 µM

Cc1nc(N)ccc1CNC(=O)[C@@H](C)NC(=O)[C@H]1C[C@H](Cc2cccc(C(F)(F)F)c2)C(=O)N1 [compound 1321, (2R,4S)—N—((R)-1-(((6-Amino-2-methylpyridin-3-yl)methyl)amino)-1-oxopropan-2-yl)-5-oxo-4-(3-(trifluoromethyl)benzyl)pyrrolidine-2-carboxamide Di-trifluoroacetate salt]
Ki (MASP-2 (CCP1-CCP2-SP)): 10 to 25 µM
Ki (mMASP-2): > 25 µM
Ki (human α-thrombin; read-out: Thrombin Ki): > 25 µM

Cc1nc(N)ccc1CNC(=O)[C@H](C)NC(=O)[C@H]1C[C@@H](CCc2ccccc2)CN1 [compound 1322, (2R,4R)—N—((S)-1-(((6-Amino-2-methylpyridin-3-yl)methyl)amino)-1-oxopropan-2-yl)-4-phenethylpyrrolidine-2-carboxamide Dihydrochloride]
Ki (MASP-2 (CCP1-CCP2-SP); read-out: MASP-2 Ki): < 0.5 µM
MASP-2 vs. thrombin selectivity (MASP-2 (CCP1-CCP2-SP)): *** (≥25 to <100-fold)
Ki (mMASP-2): 0.5 to 2.5 µM
Ki (human α-thrombin; Thrombin Ki (μM)): 10 to 25 µM

CCc1nc(N)ccc1CNC(=O)[C@H](C)NC(=O)[C@H]1C[C@H](c2ccccc2)CN1 [compound 1323, (2R,4R)—N—((S)-1-(((6-Amino-2-ethylpyridin-3-yl)methyl)amino)-1-oxopropan-2-yl)-4-phenylpyrrolidine-2-carboxamide Dihydrochloride]
Ki (MASP-2 (CCP1-CCP2-SP); read-out: MASP-2 Ki): > 25 µM
Ki (mMASP-2): 10 to 25 µM
Ki (human α-thrombin; read-out: Thrombin Ki): > 25 µM

N=C(N)c1ccc(CNC(=O)[C@H](Cc2ccc(O)cc2)NC(=O)[C@H](N)CCc2ccccc2)cc1 [compound 1326, (R)-2-Amino-N—((S)-1-((4-carbamimidoylbenzyl)amino)-3-(4-hydroxyphenyl)-1-oxopropan-2-yl)-4-phenylbutanamide Di-trifluoroacetate salt]
Ki (MASP-2 (CCP1-CCP2-SP); read-out: MASP-2 Ki): < 0.5 µM
MASP-2 vs. thrombin selectivity (MASP-2 (CCP1-CCP2-SP)): *** (≥25 to <100-fold)
Ki (mMASP-2): < 0.5 µM
Ki (human α-thrombin; Thrombin Ki (μM)): 10 to 25 µM

C[C@H](NC(=O)[C@@H](CCc1ccccc1)NCCc1ccc(O)cc1)C(=O)NCc1ccc(C(=N)N)cc1 [compound 1327, (R)—N—((S)-1-((4-Carbamimidoylbenzyl)amino)-1-oxopropan-2-yl)-2-((4-hydroxyphenethyl)amino)-4-phenylbutanamide dihydrochloride]
Ki (MASP-2 (CCP1-CCP2-SP); read-out: MASP-2 Ki): < 0.5 µM
MASP-2 vs. thrombin selectivity (MASP-2 (CCP1-CCP2-SP)): *** (≥25 to <100-fold)
Ki (mMASP-2): < 0.5 µM
Ki (human α-thrombin; read-out: Thrombin Ki): < 0.5 µM

C[C@H](NC(=O)[C@H]1C[C@H](c2ccccc2)CN1)C(=O)NCc1cnc2[nH]cc(Cl)c2c1 [compound 1329, (2R,4R)—N—((S)-1-(((3-chloro-1H-pyrrolo[2,3-b]pyridin-5-yl)methyl)amino)-1-oxopropan-2-yl)-4-phenylpyrrolidine-2-carboxamide Dihydrochloride]
Ki (MASP-2 (CCP1-CCP2-SP); read-out: MASP-2 Ki): < 0.5 µM
MASP-2 vs. thrombin selectivity (MASP-2 (CCP1-CCP2-SP)): * (≥1.0 to <5.0-fold)
Ki (mMASP-2): < 0.5 µM
Ki (human α-thrombin; Thrombin Ki (μM)): 0.5 to 2.5 µM

C[C@H](NC(=O)[C@@H](CCc1ccccc1)NCCc1cccc(O)c1)C(=O)NCc1ccc(C(=N)N)cc1 [compound 1330, (R)—N—((S)-1-((4-Carbamimidoylbenzyl)amino)-1-oxopropan-2-yl)-2-((3-hydroxyphenethyl)amino)-4-phenylbutanamide Di-trifluoroacetate salt]
Ki (MASP-2 (CCP1-CCP2-SP); read-out: MASP-2 Ki): < 0.5 µM
MASP-2 vs. thrombin selectivity (MASP-2 (CCP1-CCP2-SP)): *** (≥25 to <100-fold)
Ki (mMASP-2): < 0.5 µM
Ki (human α-thrombin; read-out: Thrombin Ki): < 0.5 µM

N=C(N)c1ccc(CNC(=O)[C@H](Cc2cnc[nH]2)NC(=O)[C@H](N)CCc2ccccc2)cc1 [compound 1332, (R)-2-Amino-N—((S)-1-((4-carbamimidoylbenzyl)amino)-3-(1H-imidazol-5-yl)-1-oxopropan-2-yl)-4-phenylbutanamide Di-trifluoroacetate]
Ki (MASP-2 (CCP1-CCP2-SP)): 10 to 25 µM
Ki (mMASP-2): 2.5 to 10 µM
Ki (human α-thrombin; read-out: Thrombin Ki): > 25 µM

Cc1cc(Cl)cc(CNC(=O)[C@H](C)NC(=O)[C@H]2C[C@H](c3ccccc3)CN2)c1 [compound 1333, (2R,4R)—N—((S)-1-((3-Chloro-5-methylbenzyl)amino)-1-oxopropan-2-yl)-4-phenylpyrrolidine-2-carboxamide Hydrochloride]
Ki (MASP-2 (CCP1-CCP2-SP)): 2.5 to 10 µM
Ki (mMASP-2): 10 to 25 µM
Ki (human α-thrombin; read-out: Thrombin Ki): > 25 µM

N=C(N)c1ccc(CNC(=O)[C@H](CCC(N)=O)NC(=O)[C@H](N)CCc2ccccc2)cc1 [compound 1335, (S)-2-((R)-2-Amino-4-phenylbutanamido)-N-(4-carbamimidoylbenzyl)pentanediamide Di-trifluoroacetate]
Ki (MASP-2 (CCP1-CCP2-SP); read-out: MASP-2 Ki): < 0.5 µM
MASP-2 vs. thrombin selectivity (MASP-2 (CCP1-CCP2-SP)): *** (≥25 to <100-fold)
Ki (mMASP-2): < 0.5 µM
Ki (human α-thrombin; Thrombin Ki (μM)): 2.5 to 10 µM

C[C@H](NC(=O)[C@H]1C[C@H](c2ccccc2)CN1)C(=O)NCc1cc(N)n[nH]1 [compound 1336, (2R,4R)—N—((S)-1-(((3-Amino-1H-pyrazol-5-yl)methyl)amino)-1-oxopropan-2-yl)-4-phenylpyrrolidine-2-carboxamide Dihydrochloride]
Ki (MASP-2 (CCP1-CCP2-SP)): 10 to 25 µM
Ki (mMASP-2): > 25 µM
Ki (human α-thrombin; read-out: Thrombin Ki): > 25 µM

Cc1nc(N)ccc1CNC(=O)[C@H](C)NC(=O)[C@H]1C[C@H](Cc2ccc3ccccc3c2)CN1 [compound 1338, (2R,4S)—N—((S)-1-(((6-Amino-2-methylpyridin-3-yl)methyl)amino)-1-oxopropan-2-yl)-4-(naphthalen-2-ylmethyl)pyrrolidine-2-carboxamide Dihydrochloride]
Ki (MASP-2 (CCP1-CCP2-SP); read-out: MASP-2 Ki): < 0.5 µM
MASP-2 vs. thrombin selectivity (MASP-2 (CCP1-CCP2-SP)): **** (≥100-fold)
Ki (mMASP-2): < 0.5 µM
Ki (human α-thrombin; read-out: Thrombin Ki): > 25 µM

C[C@H](NC(=O)[C@@H](CCc1ccccc1)NCCc1ccccc1)C(=O)NCc1ccc(C(=N)N)cc1 [compound 1340, (R)—N—((S)-1-((4-Carbamimidoylbenzyl)amino)-1-oxopropan-2-yl)-2-(phenethylamino)-4-phenylbutanamide Dihydrochloride]
Ki (MASP-2 (CCP1-CCP2-SP); read-out: MASP-2 Ki): < 0.5 µM
MASP-2 vs. thrombin selectivity (MASP-2 (CCP1-CCP2-SP)): ** (≥5.0 to <25-fold)
Ki (mMASP-2): < 0.5 µM
Ki (human α-thrombin; read-out: Thrombin Ki): < 0.5 µM

C[C@H](NC(=O)[C@H](N)CCc1ccccc1)C(=O)NCc1cc(Cl)ccc1-n1cncn1 [compound 1341, (R)-2-amino-N—((S)-1-((5-chloro-2-(1H-1,2,4-triazol-1-yl)benzyl)amino)-1-oxopropan-2-yl)-4-phenylbutanamide]
Ki (MASP-2 (CCP1-CCP2-SP)): 10 to 25 µM
MASP-2 vs. thrombin selectivity (MASP-2 (CCP1-CCP2-SP)): −− (<1.0-fold)
Ki (mMASP-2): > 25 µM
Ki (human α-thrombin; Thrombin Ki (μM)): 0.5 to 2.5 µM

C[C@H](NC(=O)[C@H](N)CCc1ccccc1)C(=O)NCc1cccnc1N [compound 1346, (R)-2-Amino-N—((S)-1-(((2-aminopyridin-3-yl)methyl)amino)-1-oxopropan-2-yl)-4-phenylbutanamide Dihydrochloride]
Ki (MASP-2 (CCP1-CCP2-SP)): 10 to 25 µM
Ki (mMASP-2): > 25 µM
Ki (human α-thrombin; read-out: Thrombin Ki): > 25 µM

Cc1nc(N)ccc1CNC(=O)[C@H](C)NC(=O)[C@@H](CCc1ccccc1)NCCc1cccc(O)c1 [compound 1349, (R)—N—((S)-1-(((6-Amino-2-methylpyridin-3-yl)methyl)amino)-1-oxopropan-2-yl)-2-((3-hydroxyphenethyl)amino)-4-phenylbutanamide Dihydrochloride]
Ki (MASP-2 (CCP1-CCP2-SP)): 0.5 to 2.5 µM
MASP-2 vs. thrombin selectivity (MASP-2 (CCP1-CCP2-SP)): ** (≥5.0 to <25-fold)
Ki (mMASP-2): 2.5 to 10 µM
Ki (human α-thrombin; read-out: Thrombin Ki): > 25 µM
